Test system: 817829-284-R-J1-PDC multi-cell spheroid viability
Assay: Anticancer human tumor 817829-284-R-J1-PDC patient-derived colon adenocarcinoma cell line growth inhibition [PI3K]
Settings: for IC50: curve of first compound; for viability, T/C: stronger effect = lower value
In short: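 Agents were dosed from a top concentration near clinical Cmax (otherwise 10 microM) in half-log decrements, alone or combined with PI3K inhibitors. The spheroids contain tumor cells plus endothelial (HUVEC) and MSC stroma; viability is measured.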

[1] = second compound 0.00316 µM, first compound 0.0316 µM
[2] = second compound 0.00316 µM, first compound 0.1 µM
[3] = second compound 0.00316 µM, first compound 0.316 µM
[4] = second compound 0.00316 µM, first compound 1 µM
[5] = second compound 0.00316 µM, first compound 3.16 µM
[6] = second compound 0.00316 µM, first compound 10 µM
[7] = second compound 0.01 µM, first compound 0.0316 µM
[8] = second compound 0.01 µM, first compound 0.1 µM
[9] = second compound 0.01 µM, first compound 0.316 µM
[10] = second compound 0.01 µM, first compound 1 µM
[11] = second compound 0.01 µM, first compound 3.16 µM
[12] = second compound 0.01 µM, first compound 10 µM
[13] = second compound 0.0316 µM, first compound 0.0316 µM
[14] = second compound 0.0316 µM, first compound 0.1 µM
[15] = second compound 0.0316 µM, first compound 0.316 µM
[16] = second compound 0.0316 µM, first compound 1 µM
[17] = second compound 0.0316 µM, first compound 3.16 µM
[18] = second compound 0.0316 µM, first compound 10 µM
[19] = second compound 0.1 µM, first compound 0.0316 µM
[20] = second compound 0.1 µM, first compound 0.1 µM
[21] = second compound 0.1 µM, first compound 0.316 µM
[22] = second compound 0.1 µM, first compound 1 µM
[23] = second compound 0.1 µM, first compound 3.16 µM
[24] = second compound 0.1 µM, first compound 10 µM
[25] = second compound 0.316 µM, first compound 0.0316 µM
[26] = second compound 0.316 µM, first compound 0.1 µM
[27] = second compound 0.316 µM, first compound 0.316 µM
[28] = second compound 0.316 µM, first compound 1 µM
[29] = second compound 0.316 µM, first compound 3.16 µM
[30] = second compound 0.316 µM, first compound 10 µM
[31] = second compound 1 µM, first compound 0.0316 µM
[32] = second compound 1 µM, first compound 0.1 µM
[33] = second compound 1 µM, first compound 0.316 µM
[34] = second compound 1 µM, first compound 1 µM
[35] = second compound 1 µM, first compound 3.16 µM
[36] = second compound 1 µM, first compound 10 µM
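Further: spheroids exposed to agents for seven days before readout.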
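Wherever viability, T/C is given: percent of vehicle DMSO control viability which is 100%.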

Compound: CC(Cn1ccc(-c2ccc(C#N)c(Cl)c2)n1)NC(=O)c1cc(C(C)O)[nH]n1 (stereo unspecified) + COc1c(OCCCN2CCOCC2)ccc2c3n(c(=NC(=O)c4cnc(N)nc4)nc12)CCN3
- IC50 (second compound 0.00316 µM): > 10000 nM
- IC50 (second compound 0.01 µM): 6450 nM
- IC50 (second compound 0.0316 µM): 5820 nM
- IC50 (second compound 0.1 µM): < 31.6 nM
- IC50 (second compound 0.316 µM): < 31.6 nM
- IC50 (second compound 1 µM): < 31.6 nM
- viability, T/C [1]: 70.6%
- viability, T/C [2]: 101%
- viability, T/C [3]: 101%
- viability, T/C [4]: 97.5%
- viability, T/C [5]: 64.5%
- viability, T/C [6]: 73.9%
- viability, T/C [7]: 59.5%
- viability, T/C [8]: 87.1%
- viability, T/C [9]: 98.8%
- viability, T/C [10]: 57.1%
- viability, T/C [11]: 71.1%
- viability, T/C [12]: 39.4%
- viability, T/C [13]: 50.8%
- viability, T/C [14]: 61.7%
- viability, T/C [15]: 61.4%
- viability, T/C [16]: 67.5%
- viability, T/C [17]: 54.6%
- viability, T/C [18]: 36.4%
- viability, T/C [19]: 48.2%
- viability, T/C [20]: 30.8%
- viability, T/C [21]: 30.2%
- viability, T/C [22]: 38.1%
- viability, T/C [23]: 33.2%
- viability, T/C [24]: 26.8%
- viability, T/C [25]: 20.2%
- viability, T/C [26]: 21.3%
- viability, T/C [27]: 23.6%
- viability, T/C [28]: 20.5%
- viability, T/C [29]: 24.4%
- viability, T/C [30]: 20.8%
- viability, T/C [31]: 12.9%
- viability, T/C [32]: 7.86%
- viability, T/C [33]: 10.6%
- viability, T/C [34]: 9.64%
- viability, T/C [35]: 9.96%
- viability, T/C [36]: 10.4%

Compound: CCN1CCN(Cc2ccc(Nc3ncc(F)c(-c4cc(F)c5nc(C)n(C(C)C)c5c4)n3)nc2)CC1 + COc1c(OCCCN2CCOCC2)ccc2c3n(c(=NC(=O)c4cnc(N)nc4)nc12)CCN3
- IC50 (second compound 0.00316 µM): > 1000 nM
- IC50 (second compound 0.01 µM): > 1000 nM
- IC50 (second compound 0.0316 µM): 57.5 nM
- IC50 (second compound 0.1 µM): < 3.16 nM
- IC50 (second compound 0.316 µM): < 3.16 nM
- IC50 (second compound 1 µM): < 3.16 nM
- viability, T/C (second compound 0.00316 µM, first compound 0.00316 µM): 113%
- viability, T/C (second compound 0.00316 µM, first compound 0.01 µM): 83.4%
- viability, T/C [1]: 72.7%
- viability, T/C [2]: 50.2%
- viability, T/C [3]: 50.7%
- viability, T/C [4]: 53.8%
- viability, T/C (second compound 0.01 µM, first compound 0.00316 µM): 75.4%
- viability, T/C (second compound 0.01 µM, first compound 0.01 µM): 60.3%
- viability, T/C [7]: 58.7%
- viability, T/C [8]: 58%
- viability, T/C [9]: 47.8%
- viability, T/C [10]: 50.4%
- viability, T/C (second compound 0.0316 µM, first compound 0.00316 µM): 56%
- viability, T/C (second compound 0.0316 µM, first compound 0.01 µM): 55.5%
- viability, T/C [13]: 73.6%
- viability, T/C [14]: 27.9%
- viability, T/C [15]: 41.4%
- viability, T/C [16]: 48.2%
- viability, T/C (second compound 0.1 µM, first compound 0.00316 µM): 36.2%
- viability, T/C (second compound 0.1 µM, first compound 0.01 µM): 32%
- viability, T/C [19]: 27.9%
- viability, T/C [20]: 21.1%
- viability, T/C [21]: 31.3%
- viability, T/C [22]: 38.5%
- viability, T/C (second compound 0.316 µM, first compound 0.00316 µM): 22%
- viability, T/C (second compound 0.316 µM, first compound 0.01 µM): 16%
- viability, T/C [25]: 21.6%
- viability, T/C [26]: 21.2%
- viability, T/C [27]: 34.1%
- viability, T/C [28]: 29.4%
- viability, T/C (second compound 1 µM, first compound 0.00316 µM): 9.7%
- viability, T/C (second compound 1 µM, first compound 0.01 µM): 9.65%
- viability, T/C [31]: 9.55%
- viability, T/C [32]: 12.1%
- viability, T/C [33]: 16.5%
- viability, T/C [34]: 21.9%

Compound: Cn1ncc(Cl)c1-c1cc(C(=O)NC(CN)Cc2cccc(F)c2)sc1Cl (stereo unspecified) + COc1c(OCCCN2CCOCC2)ccc2c3n(c(=NC(=O)c4cnc(N)nc4)nc12)CCN3
- IC50 (second compound 0.00316 µM): 73 nM
- IC50 (second compound 0.01 µM): 79.9 nM
- IC50 (second compound 0.0316 µM): 45.2 nM
- IC50 (second compound 0.1 µM): < 31.6 nM
- IC50 (second compound 0.316 µM): < 31.6 nM
- IC50 (second compound 1 µM): < 31.6 nM
- viability, T/C [1]: 105%
- viability, T/C [2]: 29.4%
- viability, T/C [3]: 21.1%
- viability, T/C [4]: 20.9%
- viability, T/C [5]: 18.1%
- viability, T/C [6]: 15.5%
- viability, T/C [7]: 69.6%
- viability, T/C [8]: 46.2%
- viability, T/C [9]: 25.6%
- viability, T/C [10]: 25.9%
- viability, T/C [11]: 18.3%
- viability, T/C [12]: 10.8%
- viability, T/C [13]: 59%
- viability, T/C [14]: 31.2%
- viability, T/C [15]: 16.8%
- viability, T/C [16]: 20.9%
- viability, T/C [17]: 15.8%
- viability, T/C [18]: 10.5%
- viability, T/C [19]: 25.4%
- viability, T/C [20]: 25.4%
- viability, T/C [21]: 21.2%
- viability, T/C [22]: 15.2%
- viability, T/C [23]: 13.9%
- viability, T/C [24]: 10.3%
- viability, T/C [25]: 20.2%
- viability, T/C [26]: 23.4%
- viability, T/C [27]: 15.2%
- viability, T/C [28]: 12.2%
- viability, T/C [29]: 11.1%
- viability, T/C [30]: 8.71%
- viability, T/C [31]: 9.57%
- viability, T/C [32]: 11.1%
- viability, T/C [33]: 8.51%
- viability, T/C [34]: 9.47%
- viability, T/C [35]: 7.2%
- viability, T/C [36]: 8.41%

From PubChem BioAssay AID1963969 (Molecular Pharmacology Branch, DTP, NCI, 2024)
